Values after ≈ are worked out from the molar mass of the structure shown. Read-outs that look alike come from different tables or passages of the source.

Assay [1] concerns K. pneumoniae NVT1001 and its ΔompK35/36 and/or ΔramR mutants. The assay is described as follows: Etest MIC, OmpK35/36 loss and AcrAB-TolC overexpression (ΔramR) strains (Table 6). The format is cell-based, Klebsiella pneumoniae. The procedure: (§1) The MICs of antibiotics were determined using the Etest (Biodisk AB, Sweden) according to the manufacturer's instructions. The MICs from the Etest, which fall between standard two-fold dilutions, were rounded up to the next highest two-fold value. The MICs of ceftazidime and cefotaxime against K. pneumoniae NVT1001 harbouring the pACYC177 plasmid with blaOXA-48 were further determined using a broth microdilution test according to the recommendations of the CLSI,^25 and the results were interpreted according to the breakpoints established by the CLSI in 2017.^25 Meanwhile, due to the lack of CLSI breakpoints in 2016 and 2017, the results for cephalothin were interpreted according to the breakpoints established by the CLSI in 2015,^26 and the results for moxifloxacin were interpreted according to the breakpoints established by the EUCAST in 2017.^27

The test system of assay [2] is K. pneumoniae NVT1001 ΔramRΔompK35/36 mutant and its revertants. The assay is described as follows: Etest MIC, ΔramRΔompK35/36 mutant and its revertants (Table 7). The format is cell-based. Conditions: Klebsiella pneumoniae.
Text: The allelic-exchange method was used to restore the wild-type gene in the K. pneumoniae NVT1001 mutants with constructed chromosome-mediated resistance mechanisms, as described by Tsai et al.^19 Briefly, a DNA fragment of the entire wild-type gene sequence along with flanking regions was amplified from K. pneumoniae NVT1001 using PCR with specific primers. The resulting PCR fragment was digested and then cloned into pUT-KB. For homologous recombination, this plasmid was transformed into E. coli S17-1 λpir^23 via electroporation and mobilized into the K. pneumoniae NVT1001 mutant via conjugation. […] After incubation in 20 mL BHI broth for 6 hours at 37° C. in the absence of kanamycin, the fully grown cultures were spread onto LB agar plates supplemented with 10% sucrose. After the double crossover occurred, the sucrose-resistant and kanamycin-susceptible colonies were selected, and the restoration of the wild-type gene was confirmed via DNA sequencing.
as §1

The mark [3] stands for this setting: Klebsiella pneumoniae, WT, NVT1001, read-out: MIC.
The mark [4] stands for this setting: Klebsiella pneumoniae, Δ35, ΔompK35 mutant.
The mark [5] stands for this setting: Klebsiella pneumoniae, Δ35/36, ΔompK35/36 mutant.
Where [6] appears, read: Klebsiella pneumoniae, Δ36, ΔompK36 mutant.
Setting [7] is: Klebsiella pneumoniae, ΔramR mutant.
Setting [8] is: Klebsiella pneumoniae, ΔramRΔ35, ΔramRΔompK35 mutant.
The mark [9] stands for this setting: Klebsiella pneumoniae, ΔramRΔ35/36, ΔramRΔompK35/36 mutant.
[10] abbreviates: Klebsiella pneumoniae, ΔramRΔ36, ΔramRΔompK36 mutant.
The mark [11] stands for this setting: ΔramRΔ35/36, ΔramRΔompK35/36 mutant.
Setting [12] is: ΔramRΔompK35/36::ompK35/36 revertant.
Where [13] appears, read: ΔramRΔompK35/36::ompK35 revertant.
Setting [14] is: ΔramRΔompK35/36::ompK36 revertant.
Setting [15] is: ΔramRΔompK35/36::ramR revertant.
[16] abbreviates: ΔramRΔompK35/36::ramR::ompK35/36 revertant.
The mark [17] stands for this setting: ΔramRΔompK35/36::ramR::ompK35 revertant.
Setting [18] is: ΔramRΔompK35/36::ramR::ompK36 revertant.

As to `NC[C@H]1O[C@H](O[C@H]2[C@H](O)[C@@H](O[C@H]3O[C@H](CO)[C@@H](O)[C@H](N)[C@H]3O)[C@H](N)C[C@@H]2N)[C@H](O)[C@@H](O)[C@@H]1O` [Kanamycin], the MIC in assay [1] (setting [3]) worked out at 2 µg/mL (≈ 4.13 µM); in assay [1] (setting [4]) it was 2 µg/mL (≈ 4.13 µM); in assay [1] (setting [5]), 4 µg/mL (≈ 8.26 µM); in assay [1] (setting [6]), 2 µg/mL (≈ 4.13 µM); in assay [1] (setting [7]), 2 µg/mL (≈ 4.13 µM); in assay [1] (setting [8]) it was 2 µg/mL (≈ 4.13 µM). In addition, the MIC in assay [1] (setting [9]) and in assay [1] (setting [10]) was 2 µg/mL (≈ 4.13 µM) throughout.

On to Colistin, for which the MIC in assay [1] (WT, NVT1001) turned out to be 1 µg/mL; in assay [1] (Δ35, ΔompK35 mutant), 1 µg/mL; in assay [1] (Δ35/36, ΔompK35/36 mutant) it was 1 µg/mL; in assay [1] (Δ36, ΔompK36 mutant) it was 1 µg/mL; in assay [1] (ΔramR mutant), 1 µg/mL; in assay [1] (ΔramRΔ35, ΔramRΔompK35 mutant), 1 µg/mL. The MIC amounted to 1 µg/mL in assay [1] (setting [11]) and 1 µg/mL in assay [1] (ΔramRΔ36, ΔramRΔompK36 mutant).

For the compound `O=C(N[C@H](CO)[C@H](O)c1ccc([N+](=O)[O-])cc1)C(Cl)Cl` [Chloramphenicol], the MIC came to 8 µg/mL (≈ 24.8 µM) in assay [1] (Klebsiella pneumoniae, WT, NVT1001); 8 µg/mL (≈ 24.8 µM) in assay [1] (setting [4]); 8 µg/mL (≈ 24.8 µM) in assay [1] (setting [5]); 8 µg/mL (≈ 24.8 µM) in assay [1] (setting [6]); 128 µg/mL (≈ 396 µM) in assay [1] (setting [7]); 128 µg/mL (≈ 396 µM) in assay [1] (setting [8]). Further, the MIC in assay [1] (setting [9]) turned out to be 128 µg/mL (≈ 396 µM); in assay [1] (setting [10]), 128 µg/mL (≈ 396 µM); in assay [2] (setting [12]), 64 µg/mL; in assay [2] (setting [13]), 128 µg/mL; in assay [2] (setting [14]), 64 µg/mL; in assay [2] (setting [15]) it was 8 µg/mL. Further, the MIC in assay [2] (setting [16]) is 4 µg/mL; in assay [2] (setting [17]), 4 µg/mL; in assay [2] (setting [18]), 8 µg/mL; in assay [2] (ΔramRΔompK35/36 mutant) it was 128 µg/mL.

`C[C@@H]1O[C@@H]1P(=O)(O)O` [Fosfomycin]: the MIC in assay [1] (setting [3]) came to 128 µg/mL (≈ 927 µM); in assay [1] (setting [4]), 128 µg/mL (≈ 927 µM); in assay [1] (setting [5]) it was 512 µg/mL (≈ 3710 µM); in assay [1] (setting [6]), 256 µg/mL (≈ 1850 µM); in assay [1] (setting [7]), 64 µg/mL (≈ 464 µM); in assay [1] (setting [8]), 128 µg/mL (≈ 927 µM). For the same compound, the MIC in assay [1] (setting [9]) is above 1020 µg/mL; in assay [1] (setting [10]) it was 512 µg/mL (≈ 3710 µM); in assay [2] (setting [12]), 64 µg/mL; in assay [2] (setting [13]), 512 µg/mL; in assay [2] (setting [14]), 128 µg/mL; in assay [2] (setting [15]) it was 512 µg/mL. Also, the MIC in assay [2] (setting [16]) is 128 µg/mL; in assay [2] (setting [17]), 256 µg/mL; in assay [2] (setting [18]), 128 µg/mL; in assay [2] (ΔramRΔompK35/36 mutant) it was above 1020 µg/mL.

On to `O=C1CN(/N=C/c2ccc([N+](=O)[O-])o2)C(=O)N1` [Nitrofurantoin], for which the MIC is 64 µg/mL (≈ 269 µM) in assay [1] (setting [3]); 64 µg/mL (≈ 269 µM) in assay [1] (setting [4]); above 512 µg/mL in assay [1] (setting [5]); above 512 µg/mL in assay [1] (setting [6]); 256 µg/mL (≈ 1070 µM) in assay [1] (setting [7]); 256 µg/mL (≈ 1070 µM) in assay [1] (setting [8]). Moreover, the MIC in assay [1] (setting [9]) was above 512 µg/mL; in assay [1] (setting [10]), above 512 µg/mL; in assay [2] (setting [12]), 256 µg/mL; in assay [2] (setting [13]), above 512 µg/mL; in assay [2] (setting [14]), 256 µg/mL; in assay [2] (setting [15]), above 512 µg/mL. Moreover, the MIC in assay [2] (setting [16]) is 64 µg/mL; in assay [2] (setting [17]) it was above 512 µg/mL; in assay [2] (setting [18]) it was 64 µg/mL; in assay [2] (ΔramRΔompK35/36 mutant), above 512 µg/mL.

As to `NC[C@H]1O[C@H](O[C@H]2[C@H](O)[C@@H](O[C@H]3O[C@H](CO)[C@@H](O)[C@H](N)[C@H]3O)[C@H](N)C[C@@H]2N)[C@H](N)C[C@@H]1O` [Tobramycin], the MIC in assay [1] (setting [3]), in assay [1] (setting [4]), in assay [1] (setting [5]), in assay [1] (setting [6]), in assay [1] (setting [7]) and in assay [1] (setting [8]) was 0.5 µg/mL (≈ 1.07 µM) each time. Besides, the MIC in assay [1] (setting [9]) worked out at 1 µg/mL (≈ 2.14 µM); in assay [1] (setting [10]) it was 0.5 µg/mL (≈ 1.07 µM).

In the case of Polymyxin B, the MIC was determined as 2 µg/mL in assay [1] (WT, NVT1001); 2 µg/mL in assay [1] (Δ35, ΔompK35 mutant); 2 µg/mL in assay [1] (Δ35/36, ΔompK35/36 mutant); 2 µg/mL in assay [1] (Δ36, ΔompK36 mutant); 1 µg/mL in assay [1] (ΔramR mutant); 1 µg/mL in assay [1] (ΔramRΔ35, ΔramRΔompK35 mutant). Also, the MIC in assay [1] (setting [11]) was 1 µg/mL; in assay [1] (ΔramRΔ36, ΔramRΔompK36 mutant), 2 µg/mL.

For the compound Gentamicin, the minimal inhibitory concentration (MIC) in assay [1] (WT, NVT1001) was 0.5 µg/mL; in assay [1] (Δ35, ΔompK35 mutant), 0.5 µg/mL; in assay [1] (Δ35/36, ΔompK35/36 mutant), 0.5 µg/mL; in assay [1] (Δ36, ΔompK36 mutant) it was 0.5 µg/mL; in assay [1] (ΔramR mutant) it was 0.5 µg/mL; in assay [1] (ΔramRΔ35, ΔramRΔompK35 mutant), 0.25 µg/mL. Also, the MIC in assay [1] (setting [11]) was determined as 0.5 µg/mL; in assay [1] (ΔramRΔ36, ΔramRΔompK36 mutant), 0.5 µg/mL.

What is called MIC is the smallest concentration in the dilution series that meets the test's criterion for growth inhibition.

Values taken from patent US10760110B2, “Antibiotic testing and screening system” (priority 2017, dated 2020).
